Measurements reported in US9388139B2, “Derivatives of celeboxib, use thereof and preparation thereof” (German University, priority 2011, dated 2016).

Legend:
COX1 = COX1 (Ovis aries (Sheep), UniProt P05979); assay: COX-1 activity, colorimetric assay; type: biochemical, ovine; settings: screening dose 100 μM; read-out: IC50 μM against COX1
Protocol: (§1) Compounds according to the present disclosure were tested for their in vitro ability to inhibit recombinant human PDE5, COX1 and COX2 enzymes at screening doses of 50, 100 and 100 μM respectively.
(§2) COX-1 and COX-2 activities were measured using purified ovine COX-1 and COX-2 with colorimetric assay kits obtained from Cayman Chemical Co. (Ann Arbor, Mich.). The activities of COX-1 and COX-2 were measured after the addition of arachidonic acid and incubation at 25° C. for 5 min by absorbance at 590 nm as specified by the manufacturer.

COX2 = COX2 (Ovis aries (Sheep), UniProt P79208); assay: COX-2 activity, colorimetric assay; type: biochemical, ovine; settings: screening dose 100 μM; read-out: IC50 μM against COX2
Protocol: as §1, §2

MCF-7 = assay: Tumor cell growth inhibition panel; type: cell-based; settings: Homo sapiens, MCF7, Breast
Protocol: (§3) Thus, compound 12 is able to show broad spectrum tumor cell growth inhibitory activity independent of cyclooxygenase inhibition, whereas PDE5 may be the major contributor to such activity.
(§4) The human tumor cell lines were purchased from the American Type Culture Collection (Mansassas, Va.) and maintained in RPMI-1640+2.0 g/L glucose pH 7.4+5% FBS+4 mM glutamine (complete growth medium), incubated at 37° C. in 5% CO2, and passaged at subconfluent density. The human fetal colon FHC cells were cultured in DMEM:F12 medium supplemented with 10% FBS, cholera toxin (10 ng/mL), 5 μg/ml transferrin, 5 μg/ml insulin, and 100 ng/ml hydrocortisone. The passage number was routinely limited to approximately 20 and morphology monitored with each passage, but no additional authentication of the cell lines was performed.
(§5) Cells were plated in 96-well microtiter plates at a density of 5,000 cells per well and allowed to adhere overnight prior to treatment. Cells were treated with a 2-log concentration range of either SS or SBA and incubated for an additional 72 hours. For siRNA assays, cells were transfected in OptiMEM media with 0.5% SureFECT transfection reagent and 200 nmol/L of either negative control or PDE5 siRNA and incubated at 37° C. for 24 h prior to treatment. At the end of the incubation period, relative cell viability was compared to vehicle controls using the Cell Titer Glo Assay (Promega, Madison Wis.), which measures viable cells based on ATP content, according to the manufacturer's specifications.

MALME-3M = assay: Tumor cell growth inhibition panel; type: cell-based; settings: Homo sapiens, Melanoma
Protocol: as §3, §4, §5

HOP-62 = assay: Tumor cell growth inhibition panel; type: cell-based; settings: Homo sapiens, Lung
Protocol: as §3, §4, §5

786-0 = assay: Tumor cell growth inhibition panel; type: cell-based; settings: Homo sapiens, Renal
Protocol: as §3, §4, §5

MDA-MB-435 = assay: Tumor cell growth inhibition panel; type: cell-based; settings: Homo sapiens, Melanoma
Protocol: as §3, §4, §5

SF-268 = assay: Tumor cell growth inhibition panel; type: cell-based; settings: Homo sapiens, CNS
Protocol: as §3, §4, §5

SW-620 = assay: Tumor cell growth inhibition panel; type: cell-based; settings: Homo sapiens, Colon
Protocol: as §3, §4, §5

LOX IMV1 = assay: Tumor cell growth inhibition panel; type: cell-based; settings: Homo sapiens, Melanoma
Protocol: as §3, §4, §5

OVCAR-5 = assay: Tumor cell growth inhibition panel; type: cell-based; settings: Homo sapiens, Ovarian
Protocol: as §3, §4, §5

EKVX = assay: Tumor cell growth inhibition panel; type: cell-based; settings: Homo sapiens, Lung
Protocol: as §3, §4, §5

UACC-257 = assay: Tumor cell growth inhibition panel; type: cell-based; settings: Homo sapiens, Melanoma
Protocol: as §3, §4, §5

SKOV-3 = assay: Tumor cell growth inhibition panel; type: cell-based; settings: Homo sapiens, SK-OV-3, Ovarian
Protocol: as §3, §4, §5

NCI-H322M = assay: Tumor cell growth inhibition panel; type: cell-based; settings: Homo sapiens, Lung
Protocol: as §3, §4, §5

COL0205 = assay: Tumor cell growth inhibition panel; type: cell-based; settings: Homo sapiens, Colon
Protocol: as §3, §4, §5

BT-549 = assay: Tumor cell growth inhibition panel; type: cell-based; settings: Homo sapiens, Breast
Protocol: as §3, §4, §5

[1] = test system: human tumor cell lines of different origins; assay: Tumor cell growth inhibition panel, overall; type: cell-based; settings: in words; including the adriamycin resistant cell line ADR/NCl-RES
Protocol: as §3, §4
Cells were plated in 96-well microtiter plates at a density of 5,000 cells per well and allowed to adhere overnight prior to treatment. Cells were treated with a 2-log concentration range of either SS or SBA and incubated for an additional 72 hours. For siRNA assays, cells were transfected in OptiMEM media with 0.5% SureFECT transfection reagent and 200 nmol/L of either negative control or PDE5 siRNA and incubated at 37° C. for 24 h prior to treatment. […]

PDE10 = PDE10 (Homo sapiens (Human), UniProt Q9Y233); assay: PDE isozyme selectivity, IMAP assay; type: biochemical
Protocol: (§6) PDE activity was measured using the IMAP fluorescence polarization assay (Molecular Devices) in which binding of hydrolyzed cyclic nucleotide substrate to immobilized metal coordination complexes increases fluorescence polarization (FP). Tetramethylrhodamine (TAMRA)-cGMP and fluorescein-cAMP were used as substrates, each at final concentration of 50 nmol/L. The PDE assay was done according to the manufacturer's specifications using either whole cell lysates or recombinant enzymes. FP was measured at excitation, emission wavelengths of either 530,590 nm for TAMRA-cGMP or 485,530 nm for fluorescein-cAMP using a Synergy4 (Biotek) microplate reader.

PDE1A = PDE1A (Homo sapiens (Human), UniProt P54750); assay: PDE isozyme selectivity, IMAP assay; type: biochemical
Protocol: as §6

PDE3B = PDE3B (Homo sapiens (Human), UniProt Q13370); assay: PDE isozyme selectivity, IMAP assay; type: biochemical
Protocol: as §6

PDE3A = PDE3A (Homo sapiens (Human), UniProt Q14432); assay: PDE isozyme selectivity, IMAP assay; type: biochemical
Protocol: as §6

PDE11 = PDE11 (Homo sapiens (Human), UniProt Q9HCR9); assay: PDE isozyme selectivity, IMAP assay; type: biochemical
Protocol: as §6

PDE9A = PDE9A (Homo sapiens (Human), UniProt O76083); assay: PDE isozyme selectivity, IMAP assay; type: biochemical; settings: substrate cGMP
Protocol: as §6

PDE5A = PDE5A (Homo sapiens (Human), UniProt O76074); assay: PDE isozyme selectivity, IMAP assay; type: biochemical
Protocol: as §6

PDE1A, sequence (P54750 whole entry, species assumed): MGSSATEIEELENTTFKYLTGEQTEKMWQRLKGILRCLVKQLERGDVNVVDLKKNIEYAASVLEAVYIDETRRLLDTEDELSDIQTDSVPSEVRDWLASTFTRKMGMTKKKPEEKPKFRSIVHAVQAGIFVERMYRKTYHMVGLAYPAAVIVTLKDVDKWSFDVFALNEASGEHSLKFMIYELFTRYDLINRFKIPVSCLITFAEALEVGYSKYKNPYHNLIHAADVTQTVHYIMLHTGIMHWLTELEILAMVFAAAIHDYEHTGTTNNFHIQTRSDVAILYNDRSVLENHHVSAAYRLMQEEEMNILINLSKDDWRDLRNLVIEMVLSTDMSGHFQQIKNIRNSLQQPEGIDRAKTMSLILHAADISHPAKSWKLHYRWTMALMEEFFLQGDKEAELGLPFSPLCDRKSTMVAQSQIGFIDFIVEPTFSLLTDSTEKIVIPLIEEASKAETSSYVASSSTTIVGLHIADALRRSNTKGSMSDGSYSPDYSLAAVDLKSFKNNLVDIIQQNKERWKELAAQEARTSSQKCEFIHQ
PDE3A, sequence (Q14432 whole entry, species assumed): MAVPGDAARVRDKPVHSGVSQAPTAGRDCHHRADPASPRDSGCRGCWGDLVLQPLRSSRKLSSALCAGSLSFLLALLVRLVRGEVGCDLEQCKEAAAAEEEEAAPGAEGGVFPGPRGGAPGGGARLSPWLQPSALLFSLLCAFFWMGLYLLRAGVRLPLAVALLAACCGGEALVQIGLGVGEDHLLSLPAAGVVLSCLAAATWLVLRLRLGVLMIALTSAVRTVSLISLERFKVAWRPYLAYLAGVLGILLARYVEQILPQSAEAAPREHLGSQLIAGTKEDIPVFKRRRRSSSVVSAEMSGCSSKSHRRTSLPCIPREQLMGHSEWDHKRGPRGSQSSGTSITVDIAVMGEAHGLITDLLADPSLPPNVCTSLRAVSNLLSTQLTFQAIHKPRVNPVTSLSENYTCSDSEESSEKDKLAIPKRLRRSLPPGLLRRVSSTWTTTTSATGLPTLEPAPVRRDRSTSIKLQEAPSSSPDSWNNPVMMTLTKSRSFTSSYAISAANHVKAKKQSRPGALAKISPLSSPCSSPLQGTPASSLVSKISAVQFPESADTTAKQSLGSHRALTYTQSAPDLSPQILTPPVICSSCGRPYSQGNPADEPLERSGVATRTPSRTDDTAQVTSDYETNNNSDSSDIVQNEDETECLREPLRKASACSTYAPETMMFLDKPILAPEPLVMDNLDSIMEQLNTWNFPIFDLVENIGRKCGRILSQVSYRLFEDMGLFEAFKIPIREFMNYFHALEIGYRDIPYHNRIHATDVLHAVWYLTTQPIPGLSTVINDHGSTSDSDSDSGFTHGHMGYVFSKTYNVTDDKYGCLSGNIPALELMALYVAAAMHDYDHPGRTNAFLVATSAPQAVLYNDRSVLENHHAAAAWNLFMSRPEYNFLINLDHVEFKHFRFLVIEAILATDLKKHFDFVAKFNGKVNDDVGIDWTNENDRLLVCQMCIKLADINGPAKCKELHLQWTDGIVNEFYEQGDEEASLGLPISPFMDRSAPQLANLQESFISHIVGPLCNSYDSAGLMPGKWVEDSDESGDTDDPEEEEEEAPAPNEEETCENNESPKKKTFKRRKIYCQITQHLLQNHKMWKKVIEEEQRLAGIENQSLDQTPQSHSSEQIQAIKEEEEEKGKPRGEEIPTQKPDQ
PDE11, sequence (Q9HCR9 whole entry): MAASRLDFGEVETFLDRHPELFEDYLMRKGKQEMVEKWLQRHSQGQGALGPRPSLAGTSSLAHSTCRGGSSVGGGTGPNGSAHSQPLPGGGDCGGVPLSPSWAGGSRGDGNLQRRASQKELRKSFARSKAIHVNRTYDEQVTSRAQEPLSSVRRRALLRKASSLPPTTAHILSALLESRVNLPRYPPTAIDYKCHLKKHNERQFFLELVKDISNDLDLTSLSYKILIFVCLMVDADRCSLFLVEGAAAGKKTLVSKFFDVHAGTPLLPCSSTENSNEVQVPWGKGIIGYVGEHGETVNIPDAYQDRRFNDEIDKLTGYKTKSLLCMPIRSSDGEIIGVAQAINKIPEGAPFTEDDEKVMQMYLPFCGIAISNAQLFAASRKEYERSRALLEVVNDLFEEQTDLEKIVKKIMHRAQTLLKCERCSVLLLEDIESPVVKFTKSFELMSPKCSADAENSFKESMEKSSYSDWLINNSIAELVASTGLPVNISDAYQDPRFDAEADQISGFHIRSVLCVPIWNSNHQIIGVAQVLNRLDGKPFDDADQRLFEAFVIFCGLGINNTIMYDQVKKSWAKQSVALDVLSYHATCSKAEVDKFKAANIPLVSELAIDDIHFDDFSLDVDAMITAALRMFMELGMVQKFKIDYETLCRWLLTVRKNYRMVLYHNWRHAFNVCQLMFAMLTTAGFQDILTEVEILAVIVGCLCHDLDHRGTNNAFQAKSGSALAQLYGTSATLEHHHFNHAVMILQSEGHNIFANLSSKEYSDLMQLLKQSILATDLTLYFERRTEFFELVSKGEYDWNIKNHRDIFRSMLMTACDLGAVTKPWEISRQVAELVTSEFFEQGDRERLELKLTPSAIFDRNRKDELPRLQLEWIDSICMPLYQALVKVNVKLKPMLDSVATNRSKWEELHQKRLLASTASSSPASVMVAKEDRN
PDE3B, sequence (Q13370 whole entry, species assumed): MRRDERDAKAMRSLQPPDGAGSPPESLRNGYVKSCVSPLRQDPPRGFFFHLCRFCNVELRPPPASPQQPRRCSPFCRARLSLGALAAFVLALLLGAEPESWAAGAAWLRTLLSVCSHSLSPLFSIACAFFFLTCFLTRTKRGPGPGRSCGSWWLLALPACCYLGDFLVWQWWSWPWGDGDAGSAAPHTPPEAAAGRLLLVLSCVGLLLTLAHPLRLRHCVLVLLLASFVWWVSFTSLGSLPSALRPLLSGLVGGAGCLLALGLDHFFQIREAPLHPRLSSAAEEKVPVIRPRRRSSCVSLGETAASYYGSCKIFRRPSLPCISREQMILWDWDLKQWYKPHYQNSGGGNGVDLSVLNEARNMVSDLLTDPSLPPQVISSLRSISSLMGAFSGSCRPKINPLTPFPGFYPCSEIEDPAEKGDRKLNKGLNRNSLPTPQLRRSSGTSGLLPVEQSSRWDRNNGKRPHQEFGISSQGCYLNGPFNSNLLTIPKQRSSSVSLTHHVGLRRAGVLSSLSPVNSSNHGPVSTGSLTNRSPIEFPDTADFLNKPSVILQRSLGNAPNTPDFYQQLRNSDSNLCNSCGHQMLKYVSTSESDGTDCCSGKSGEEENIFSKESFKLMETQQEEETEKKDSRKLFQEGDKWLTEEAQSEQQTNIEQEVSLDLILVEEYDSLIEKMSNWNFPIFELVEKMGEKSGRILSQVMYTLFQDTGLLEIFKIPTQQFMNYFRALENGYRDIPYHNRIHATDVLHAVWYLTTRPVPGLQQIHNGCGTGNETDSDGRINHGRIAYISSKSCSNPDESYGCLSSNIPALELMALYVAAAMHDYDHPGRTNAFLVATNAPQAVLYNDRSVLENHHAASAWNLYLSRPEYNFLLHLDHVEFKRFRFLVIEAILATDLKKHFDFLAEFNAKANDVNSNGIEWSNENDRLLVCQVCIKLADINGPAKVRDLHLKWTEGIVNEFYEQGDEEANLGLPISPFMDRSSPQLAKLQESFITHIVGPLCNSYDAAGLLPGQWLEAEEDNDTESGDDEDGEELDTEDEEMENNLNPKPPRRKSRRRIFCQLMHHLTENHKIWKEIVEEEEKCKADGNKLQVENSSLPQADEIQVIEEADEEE
PDE10, sequence (Q9Y233 whole entry): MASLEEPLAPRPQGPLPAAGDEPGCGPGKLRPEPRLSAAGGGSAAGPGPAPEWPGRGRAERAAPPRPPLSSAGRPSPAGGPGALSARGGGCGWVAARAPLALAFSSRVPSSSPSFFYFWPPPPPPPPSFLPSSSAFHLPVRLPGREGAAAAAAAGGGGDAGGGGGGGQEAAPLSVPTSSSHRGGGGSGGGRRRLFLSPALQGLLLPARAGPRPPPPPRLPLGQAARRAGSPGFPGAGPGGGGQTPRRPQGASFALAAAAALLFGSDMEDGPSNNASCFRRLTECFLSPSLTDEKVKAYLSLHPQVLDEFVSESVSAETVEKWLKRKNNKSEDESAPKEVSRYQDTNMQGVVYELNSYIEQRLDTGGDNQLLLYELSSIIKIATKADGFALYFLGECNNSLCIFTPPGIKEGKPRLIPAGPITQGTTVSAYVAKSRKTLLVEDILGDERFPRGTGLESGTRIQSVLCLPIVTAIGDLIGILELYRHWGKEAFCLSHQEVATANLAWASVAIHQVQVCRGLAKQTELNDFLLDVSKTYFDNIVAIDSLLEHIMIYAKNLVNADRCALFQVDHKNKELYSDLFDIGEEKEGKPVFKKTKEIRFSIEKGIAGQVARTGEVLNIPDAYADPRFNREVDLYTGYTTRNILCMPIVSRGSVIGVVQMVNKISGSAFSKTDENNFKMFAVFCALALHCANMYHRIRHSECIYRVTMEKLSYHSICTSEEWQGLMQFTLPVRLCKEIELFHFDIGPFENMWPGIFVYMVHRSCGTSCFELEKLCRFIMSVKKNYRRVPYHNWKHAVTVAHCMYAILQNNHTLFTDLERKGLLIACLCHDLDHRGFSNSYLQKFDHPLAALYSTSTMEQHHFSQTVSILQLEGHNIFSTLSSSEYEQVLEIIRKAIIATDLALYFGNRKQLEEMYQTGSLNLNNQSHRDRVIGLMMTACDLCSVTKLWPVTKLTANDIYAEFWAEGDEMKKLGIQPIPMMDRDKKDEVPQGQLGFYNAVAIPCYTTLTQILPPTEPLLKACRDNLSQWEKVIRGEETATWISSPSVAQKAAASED

**Q.** Which IC50 (COX1) does the source give for `CC(C)(C)C1=NN(c2ccc(C(=O)O)cc2)C(c2ccc(Cl)cc2Cl)C1` (stereo not shown) [Compound 12, 4-(3-(tert-Butyl)-5-(2,4-dichlorophenyl)-4,5-dihydro-1H-pyrazol-1-yl)benzoic acid] here?
**A.** Its IC50 is greater than 100 µM.

**Q.** What about the IC50 (COX2) of the same compound?
**A.** Its IC50 is greater than 100 µM.

**Q.** And the IC50 (MCF-7)?
**A.** The IC50 was 52.4 µM.

**Q.** And the IC50 (MALME-3M)?
**A.** Its IC50 is 65.7 µM.

**Q.** And the IC50 (HOP-62)?
**A.** Its IC50 is 37.4 µM.

**Q.** And the IC50 (786-0)?
**A.** The IC50 was 46.4 µM.

**Q.** And the IC50 (MDA-MB-435)?
**A.** The IC50 was 50.8 µM.

**Q.** What about the IC50 (SF-268) of the same compound?
**A.** The IC50 was 41.1 µM.

**Q.** What about the IC50 (SW-620) of the same compound?
**A.** The IC50 was 51.8 µM.

**Q.** What about the IC50 (LOX IMV1) of the same compound?
**A.** Its IC50 is 50.5 µM.

**Q.** What about the IC50 (OVCAR-5) of the same compound?
**A.** Its IC50 is 59.4 µM.

**Q.** And the IC50 (EKVX)?
**A.** The IC50 was 57.2 µM.

**Q.** And the IC50 (UACC-257)?
**A.** The IC50 was 70 µM.

**Q.** And the IC50 (SKOV-3)?
**A.** Its IC50 is 87.4 µM.

**Q.** And the IC50 (NCI-H322M)?
**A.** Its IC50 is 49.8 µM.

**Q.** And the IC50 (COL0205)?
**A.** The IC50 was 31.3 µM.

**Q.** And the IC50 (BT-549)?
**A.** The IC50 was 54.7 µM.

**Q.** And the “tumor cell growth inhibitory activity” value [1]?
**A.** Its value is “broad spectrum growth inhibitory activity”.

**Q.** And the IC50 (PDE10; PDE10, substrate cAMP)?
**A.** The IC50 was greater than 50 µM.

**Q.** What about the IC50 (PDE10; PDE10, substrate cGMP) of the same compound?
**A.** The IC50 was greater than 50 µM.

**Q.** What about the IC50 (PDE1A; substrate cAMP) of the same compound?
**A.** The IC50 was greater than 50 µM.

**Q.** What about the IC50 (PDE1A; substrate cGMP) of the same compound?
**A.** The IC50 was greater than 50 µM.

**Q.** And the IC50 (PDE3B; substrate cAMP)?
**A.** Its IC50 is greater than 50 µM.

**Q.** And the IC50 (PDE3B; substrate cGMP)?
**A.** Its IC50 is greater than 50 µM.

**Q.** And the IC50 (PDE3A; substrate cAMP)?
**A.** The IC50 was greater than 50 µM.

**Q.** What about the IC50 (PDE3A; substrate cGMP) of the same compound?
**A.** The IC50 was greater than 50 µM.

**Q.** And the IC50 (PDE11; PDE11, substrate cAMP)?
**A.** The IC50 was greater than 50 µM.

**Q.** What about the IC50 (PDE11; PDE11, substrate cGMP) of the same compound?
**A.** Its IC50 is greater than 50 µM.

**Q.** What about the IC50 (PDE9A) of the same compound?
**A.** The IC50 was greater than 50 µM.

**Q.** And the IC50 (PDE5A; PDE5A, substrate cGMP)?
**A.** The IC50 was 3.7 µM.

**Q.** What about the “selectivity for PDE5 relative to other cGMP degrading PDE isozymes” value (PDE5A; in words) of the same compound?
**A.** Its value is “selective inhibitor for PDE5”.
